{"source": "ChEMBL document CHEMBL4619823", "about": "“Allosteric Modulation of Protein Arginine Methyltransferase 5 (PRMT5)” (ACS Med Chem Lett, 2020)", "note": "pEC50: −log10 of the molar value.", "data": [{"biological_target": "PRMT5/MEP50 complex (Homo sapiens, UniProt O14744)", "sequence (O14744 whole entry)": "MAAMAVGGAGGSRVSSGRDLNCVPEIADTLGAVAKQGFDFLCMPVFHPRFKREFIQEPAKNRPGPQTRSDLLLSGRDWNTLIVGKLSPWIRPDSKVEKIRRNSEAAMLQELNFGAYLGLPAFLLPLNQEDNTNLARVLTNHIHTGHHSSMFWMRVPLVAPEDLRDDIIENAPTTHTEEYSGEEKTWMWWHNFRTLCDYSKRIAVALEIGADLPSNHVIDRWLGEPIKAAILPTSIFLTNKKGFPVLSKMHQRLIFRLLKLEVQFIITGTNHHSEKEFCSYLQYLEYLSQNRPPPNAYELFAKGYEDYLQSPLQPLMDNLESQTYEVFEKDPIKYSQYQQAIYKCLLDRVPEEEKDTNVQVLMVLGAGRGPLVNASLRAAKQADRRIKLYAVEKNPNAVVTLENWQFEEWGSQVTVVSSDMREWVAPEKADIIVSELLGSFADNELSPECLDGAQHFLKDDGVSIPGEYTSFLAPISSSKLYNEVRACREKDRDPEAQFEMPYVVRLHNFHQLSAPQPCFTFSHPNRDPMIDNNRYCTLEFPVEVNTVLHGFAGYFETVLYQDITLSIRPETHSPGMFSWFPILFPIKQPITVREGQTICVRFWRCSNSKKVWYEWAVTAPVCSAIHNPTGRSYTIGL", "sequence (Q9BQA1 whole entry, further chain)": "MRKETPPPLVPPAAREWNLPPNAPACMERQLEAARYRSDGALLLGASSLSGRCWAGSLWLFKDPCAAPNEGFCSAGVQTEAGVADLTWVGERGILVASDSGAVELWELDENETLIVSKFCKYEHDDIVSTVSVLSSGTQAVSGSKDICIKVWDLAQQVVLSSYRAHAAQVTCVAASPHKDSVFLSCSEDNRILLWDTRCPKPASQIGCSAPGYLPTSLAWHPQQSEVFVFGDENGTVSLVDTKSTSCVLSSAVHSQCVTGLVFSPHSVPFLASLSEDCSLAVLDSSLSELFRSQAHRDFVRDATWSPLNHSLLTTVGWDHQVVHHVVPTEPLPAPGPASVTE", "experiment": "Inhibition of recombinant Avi-tagged PRMT5 (2 to 637)/ His-tagged MEP50 (2 to 342) (unknown origin) expressed in baculovirus infected Sf21 cells using biotinylated H4R3 (Me1) peptide as substrate in presence of SAM preincubated for 60 mins followed by substrate addition after 150 mins by biochemical methylation assay", "values": [{"smiles": "COc1ccc([C@@]2(C34CC5CC(CC(O)(C5)C3)C4)N=C(N)N(C)C2=O)cc1", "pEC50": 6.66}, {"smiles": "CC1CCN2C(=O)[C@](c3ccccc3)(C34CC5CC(CC(C5)C3)C4)N=C2N1", "note": "(stereo partly drawn)", "pEC50": 7.18}, {"smiles": "CN1C(=O)[C@](c2ccccc2)(C23CC4CC(CC(C4)C2)C3)N=C1N", "pEC50": 7.92}, {"smiles": "CCC1CCN2C(=O)[C@](c3ccccc3)(C34CC5CC(CC(C5)C3)C4)N=C2N1", "note": "(stereo partly drawn)", "pEC50": 7.17}, {"smiles": "COc1ccc([C@@]2(C34CCC(CC3)CC4)N=C(N)N(C)C2=O)cc1", "pEC50": 6.62}, {"smiles": "COc1ccc(C2(C34CC5CC(O)(CC(F)(C5)C3)C4)N=C(N)N(C)C2=O)cc1", "note": "(stereo not drawn)", "pEC50": 6.21}, {"smiles": "CN1C(=O)[C@@](CCC2CCCCC2)(c2ccccc2)N=C1N", "pEC50": 7.30}, {"smiles": "COc1ccc([C@@]2(C34CC5CC(CC(C5)C3)C4)N=C(N)N(C)C2=O)cc1", "pEC50": 7.80}, {"smiles": "CN1C(=O)[C@](c2ccc3ccccc3c2)(C23CC4CC(CC(C4)C2)C3)N=C1N", "pEC50": 7.05}, {"smiles": "COc1ccc([C@]2(C34CC5CC(CC(C5)C3)C4)N=C(N)N(C)C2=O)cc1", "pEC50": 5.51}, {"smiles": "COc1cccc([C@@]2(C34CC5CC(CC(C5)C3)C4)N=C(N)N(C)C2=O)c1", "pEC50": 7.25}]}, {"biological_target": "PRMT5/MEP50 complex (Homo sapiens) (UniProt O14744+Q9BQA1)", "experiment": "Binding affinity to human biotinylated PRMT5/MEP50 assessed as association rate constant by SPR analysis", "format": "protein-complex assay", "units": {"Ka": "M⁻¹ s⁻¹"}, "values": [{"smiles": "COc1ccc([C@@]2(C34CC5CC(CC(C5)C3)C4)N=C(N)N(C)C2=O)cc1", "Ka": 1000}]}, {"biological_target": "Protein arginine N-methyltransferase 5 (Homo sapiens, UniProt O14744)", "sequence (O14744 whole entry)": "as the sequence (O14744 whole entry) above", "experiment": "Inhibition of PRMT5 in human MCF7 cells assessed as reduction in symmetrically dimethylated nuclear protein level incubated for 3 days by Alexafluor-488 conjugate anti-rabbit antibody/DAPI staining based IN cell analyzer method", "values": [{"smiles": "COc1ccc([C@@]2(C34CC5CC(CC(C5)C3)C4)N=C(N)N(C)C2=O)cc1", "pEC50": 5.34}]}]}
